Measured values as given in EP3238720A1, “ANTI-METHANOGENIC COMPOSITIONS AND USES THEREOF” (DSM IP Assets B.V., priority 2016, dated 2017).
Where two headings read alike, the source gives them in different places.

Columns and labels:
[1] = target: T1, MCR (MCR-I) (Methanothermobacter marburgensis, UniProt P11558+P11560+P11562); format: biochemical, M. marburgensis; settings: for Methane reduction: 0.1 µM 3-NOP vs no inhibitor
[2] = target: T1, MCR (MCR-I); format: biochemical, M. marburgensis; settings: 15 min at room temperature
[3] = system: Methanobacterium bryantii; assay: Growth/methane production of methanogen cultures; format: cell-based; settings: after 2 days, maintained over 12 days
Procedure: (§1) The methanogens outlined in table 3 were grown in 5 mL of the respective culture medium at 37°C in 15-mL Hungate tubes sealed with butyl rubber septum and aluminum seals. The 8 mL gas phase was 80% H2/20% CO2 at 2 x 10^5 Pa pressure. In the case of M. stadtmanae and M. barkeri H2 and methanol (100 mM) was the energy source. Methanogens growth was followed by CH4 production using a flame ionization-detector GC (0.5 ml of gas from headspace, manual injection in the GC (HP Hewlett 5890, Packard Series II, Waldbronn, Germany) using a 1 mL Sample-Lock® syringe (Hamilton, Nevada, USA). The concentration of CH4 was determined using a standard curve generated by injecting different volumes of 99.9 % pure CH4 prior to and after the injection of samples. Three consecutive 5 mL batches of incubations were conducted. In each batch the following treatments were used in triplicate: (i) blanks, only media; (ii) controls, cultures in the absence of inhibitor; (iii) 3-NOP added to a final concentration of 0.5 µM, 5 µM, 50 µM, 100 µM, 250 µM and 500 µM. 3-NOP was added on day 2 after culture inoculation with 0.5 mL of an actively growing culture. The growth was measured over 12 days every 2 days coinciding with new pressurization of headspace to 2 bar with 80:20 H2:CO2 gas mixture. […] Table 3: Methanogens

[4] = system: Methanobrevibacter millerae; assay: Growth/methane production of methanogen cultures; format: cell-based; settings: after 2 days, maintained over 12 days
Procedure: as §1

[5] = system: Methanobrevibacter smithii; assay: Growth/methane production of methanogen cultures; format: cell-based; settings: after 2 days, maintained over 12 days
Procedure: as §1

[6] = system: Methanomicrobium mobile; assay: Growth/methane production of methanogen cultures; format: cell-based; settings: after 2 days, maintained over 12 days
Procedure: as §1

[7] = system: Methanosarcina barkeri; assay: Growth/methane production of methanogen cultures; format: cell-based; settings: H2 and methanol (100 mM), after 2 days, maintained over 12 days
Procedure: as §1

[8] = system: Methanosphaera stadtmanae; assay: Growth/methane production of methanogen cultures; format: cell-based; settings: H2 and methanol (100 mM), after 2 days, maintained over 12 days
Procedure: as §1

[9] = system: Methanothermobacter wolfeii; assay: Growth/methane production of methanogen cultures; format: cell-based; settings: after 2 days, maintained over 12 days
Procedure: as §1

T1 sequence (P11558 2-550 limits assumed): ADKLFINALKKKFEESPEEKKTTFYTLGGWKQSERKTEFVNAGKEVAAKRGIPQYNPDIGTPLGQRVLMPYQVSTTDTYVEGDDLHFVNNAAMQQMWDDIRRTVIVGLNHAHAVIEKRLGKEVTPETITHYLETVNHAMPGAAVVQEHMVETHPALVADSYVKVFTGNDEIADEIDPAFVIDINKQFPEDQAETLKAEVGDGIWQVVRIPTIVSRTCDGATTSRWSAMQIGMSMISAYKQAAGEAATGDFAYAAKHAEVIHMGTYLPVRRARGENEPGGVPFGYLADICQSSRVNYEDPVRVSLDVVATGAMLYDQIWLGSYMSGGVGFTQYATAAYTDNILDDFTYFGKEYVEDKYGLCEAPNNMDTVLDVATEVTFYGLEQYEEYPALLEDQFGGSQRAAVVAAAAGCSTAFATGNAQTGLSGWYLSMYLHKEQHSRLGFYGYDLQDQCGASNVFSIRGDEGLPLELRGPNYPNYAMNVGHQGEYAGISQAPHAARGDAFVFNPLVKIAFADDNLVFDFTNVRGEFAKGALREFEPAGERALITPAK
T1 sequence (P11560 2-443 limits assumed): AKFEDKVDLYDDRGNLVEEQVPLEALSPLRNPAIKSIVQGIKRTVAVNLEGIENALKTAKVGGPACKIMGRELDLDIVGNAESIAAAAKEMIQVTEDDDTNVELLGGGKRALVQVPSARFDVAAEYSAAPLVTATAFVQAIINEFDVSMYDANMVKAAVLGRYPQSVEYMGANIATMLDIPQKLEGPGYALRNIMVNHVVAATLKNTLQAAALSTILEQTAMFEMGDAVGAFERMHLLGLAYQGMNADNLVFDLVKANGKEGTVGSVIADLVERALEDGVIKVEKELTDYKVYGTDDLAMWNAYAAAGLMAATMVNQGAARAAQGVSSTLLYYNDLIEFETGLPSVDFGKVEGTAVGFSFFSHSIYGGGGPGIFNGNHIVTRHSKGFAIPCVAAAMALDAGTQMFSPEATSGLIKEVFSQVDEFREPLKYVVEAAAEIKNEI
T1 sequence (P11562 2-249 limits assumed): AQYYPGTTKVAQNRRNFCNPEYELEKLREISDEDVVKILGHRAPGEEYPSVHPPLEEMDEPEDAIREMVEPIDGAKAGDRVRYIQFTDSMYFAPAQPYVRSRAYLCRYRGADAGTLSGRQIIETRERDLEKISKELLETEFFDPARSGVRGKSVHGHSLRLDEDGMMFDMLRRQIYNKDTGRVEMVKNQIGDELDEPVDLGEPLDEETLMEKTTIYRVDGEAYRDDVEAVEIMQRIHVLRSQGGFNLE

Structure (SMILES): O=[N+]([O-])OCCCO [3-NOP, 3-Nitrooxypropanol]
- reduces the methane concentration and thus the MCR activity ([1]; 0.1 µM 3-NOP): about 50%
- Methane reduction ([1]; 3min): -28%
- Methane reduction ([1]; 6min): -38%
- Methane reduction ([1]; 9min): -47%
- Methane concentration ([1]; 0.1 µM 3-NOP, 3min, no inhibitor 0.095): 0.068 µM
- Methane concentration ([1]; 0.1 µM 3-NOP, 6min, no inhibitor 0.132): 0.082 µM
- Methane concentration ([1]; 0.1 µM 3-NOP, 9min, no inhibitor 0.163): 0.086 µM
- MCR activity was reduced ([2]; 10 µM of 3-NOP): 50%
- inhibition of the enzyme ([2]; > 30 µM of 3-NOP): almost complete inhibition
- lowest concentration of 3-NOP able to significantly decrease the growth/ methane production (>50%) [3]: 1 µM
- lowest concentration of 3-NOP able to significantly decrease the growth/ methane production (>50%) [4]: 2.5 µM
- lowest concentration of 3-NOP able to significantly decrease the growth/ methane production (>50%) [5]: 2.5 µM
- lowest concentration of 3-NOP able to significantly decrease the growth/ methane production (>50%) [6]: 50 µM
- lowest concentration of 3-NOP able to significantly decrease the growth/ methane production (>50%) [7]: 50 µM
- lowest concentration of 3-NOP able to significantly decrease the growth/ methane production (>50%) [8]: 5 µM
- lowest concentration of 3-NOP able to significantly decrease the growth/ methane production (>50%) [9]: < 1 µM
